Source: ChEMBL document CHEMBL4840379, “RIBOTACs: Small Molecules Selectively Destroy Cancer-Associated RNA” (ACS Med Chem Lett, 2021)
The source made the active and inactive calls. The rule behind the calls is not given here.

What was measured:
microRNA 21 = assay: RIBOTAC activity at Pre-miR-21 RNA/RNase L in human MDA-MB-231 cells assessed as decrease in pre-miR-21 level by measuring cleaved pre-miR-21 level at 500 nM incubated for 24 hrs […]; format: cell-based
[1] = Drug uptake in human MDA-MB-231 cells assessed as compound level at 500 nM incubated for 24 hrs; format: ADME, cell-based; conditions: mda-mb-231, 24 h, 0.5 µM
A549 = assay: Antiinvasive activity in human A549 cells assessed as decrease in pre-miR-21 overexpression induced invasion at 500 nM incubated for 24 hrs […]; format: functional, cell-based
A-375 = assay: Antiinvasive activity in human A-375 cells assessed as decrease in pre-miR-21 overexpression induced invasion at 500 nM incubated for 24 hrs […]; format: functional, cell-based
[2] = Turnovers, ratio of RIBOTAC activity at Pre-miR-21 RNA/RNase L in human MDA-MB-231 cells assessed as decrease in pre-miR-21 level by measuring cleaved pre-miR-21 level at 500 nM incubated for 24 hrs […] to drug concentration in human MDA-MB-231 cells; format: functional

Drug uptake [1]: 2.6 pmol
Compound: CCCN(CC(=O)N(CCC)CC(=O)N(CCC)CC(=O)N(CC(=O)NCCOCCOCCOCCOc1ccc(/C=C2\SC(Nc3ccccc3)=C(C(=O)OCC)C2=O)cc1O)Cc1cn(CCCNC(=O)CCCOc2ccc(-c3nc4ccc(-c5ccc(N6CCN(C)CC6)cc5)cc4[nH]3)cc2)nn1)C(=O)CN(Cc1cn(CCCNC(=O)CCCOc2ccc(-c3nc4cc(-c5ccc(N6CCN(C)CC6)cc5)ccc4[nH]3)cc2)nn1)C(C)=O
Activity (microRNA 21): 68 pmol
Activity (A549): Active
Activity (A-375): Active
Ratio [2]: 26
